The source of these data is the supplement of paper PMC12463676, “Small-molecule dissolution of stress granules by redox modulation benefits ALS models” (Nature Chemical Biology, 2025).

Compound in experiment [1]: O=[As]([O-])(O)O.[K+] [potassium arsenate]
The experiment can be described thus: thermal stability z-score vs DMSO; higher = more thermally stabilized by treatment. Particulars: HeLa; arsenate concentration 1 mM. On the procedure:
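Cellular thermal proteome profiling in HeLa cells treated with 1 mM arsenate for 1 h (DMSO pretreatment), heated to ten temperatures (37-66.3 °C). Soluble protein was quantified by TMT mass spectrometry relative to DMSO controls; the thermal stability score was transformed to a z-score; mean of n = 3 experiments.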

Compound in experiment [2]: NC(=O)CCCCC1CCSS1 [lipoamide]
The experiment is described as above. Particulars: HeLa, lipoamide concentration 100 µM. Here is the method:
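Cellular thermal proteome profiling in HeLa cells. Cells were treated with 100 µM lipoamide for 1 h, with or without 1 mM arsenate for a further 1 h, then heated to ten temperatures (37-66.3 °C), and soluble protein was quantified by TMT mass spectrometry relative to 0.1% DMSO controls. The thermal stability score (sum of log2 fold changes minus the abundance score) was transformed to a z-score; mean of n = 3 experiments.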

Setting [3] is: arsenate co-treatment: 1 mM arsenate 1 h.
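Note: each temperature applied for 3 min, abundance score taken as mean log2 fold change at the two lowest temperatures, z-score obtained by mean subtraction and division by SD.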

Chain of UniProt Q5TC12 (Q5TC12 whole entry): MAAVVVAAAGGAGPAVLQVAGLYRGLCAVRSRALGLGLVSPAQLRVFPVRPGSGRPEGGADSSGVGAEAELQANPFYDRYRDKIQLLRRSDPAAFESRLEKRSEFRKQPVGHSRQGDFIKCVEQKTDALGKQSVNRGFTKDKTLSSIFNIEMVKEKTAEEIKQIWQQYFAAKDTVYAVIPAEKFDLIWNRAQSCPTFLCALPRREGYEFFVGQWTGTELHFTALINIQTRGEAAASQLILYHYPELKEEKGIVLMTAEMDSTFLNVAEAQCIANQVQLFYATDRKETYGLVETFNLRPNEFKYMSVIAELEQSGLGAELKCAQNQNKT
Chain of UniProt P61421 (P61421 whole entry): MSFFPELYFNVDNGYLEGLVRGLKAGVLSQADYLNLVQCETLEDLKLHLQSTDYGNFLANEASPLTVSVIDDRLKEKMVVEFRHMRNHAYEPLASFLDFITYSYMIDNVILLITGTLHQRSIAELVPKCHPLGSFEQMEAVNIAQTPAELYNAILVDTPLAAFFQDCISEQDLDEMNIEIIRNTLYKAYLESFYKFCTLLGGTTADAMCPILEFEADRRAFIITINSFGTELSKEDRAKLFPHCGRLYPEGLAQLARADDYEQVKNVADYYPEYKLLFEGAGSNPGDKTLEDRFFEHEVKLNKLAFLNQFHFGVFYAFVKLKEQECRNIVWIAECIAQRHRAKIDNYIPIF
Chain of UniProt Q04656 (Q04656 whole entry): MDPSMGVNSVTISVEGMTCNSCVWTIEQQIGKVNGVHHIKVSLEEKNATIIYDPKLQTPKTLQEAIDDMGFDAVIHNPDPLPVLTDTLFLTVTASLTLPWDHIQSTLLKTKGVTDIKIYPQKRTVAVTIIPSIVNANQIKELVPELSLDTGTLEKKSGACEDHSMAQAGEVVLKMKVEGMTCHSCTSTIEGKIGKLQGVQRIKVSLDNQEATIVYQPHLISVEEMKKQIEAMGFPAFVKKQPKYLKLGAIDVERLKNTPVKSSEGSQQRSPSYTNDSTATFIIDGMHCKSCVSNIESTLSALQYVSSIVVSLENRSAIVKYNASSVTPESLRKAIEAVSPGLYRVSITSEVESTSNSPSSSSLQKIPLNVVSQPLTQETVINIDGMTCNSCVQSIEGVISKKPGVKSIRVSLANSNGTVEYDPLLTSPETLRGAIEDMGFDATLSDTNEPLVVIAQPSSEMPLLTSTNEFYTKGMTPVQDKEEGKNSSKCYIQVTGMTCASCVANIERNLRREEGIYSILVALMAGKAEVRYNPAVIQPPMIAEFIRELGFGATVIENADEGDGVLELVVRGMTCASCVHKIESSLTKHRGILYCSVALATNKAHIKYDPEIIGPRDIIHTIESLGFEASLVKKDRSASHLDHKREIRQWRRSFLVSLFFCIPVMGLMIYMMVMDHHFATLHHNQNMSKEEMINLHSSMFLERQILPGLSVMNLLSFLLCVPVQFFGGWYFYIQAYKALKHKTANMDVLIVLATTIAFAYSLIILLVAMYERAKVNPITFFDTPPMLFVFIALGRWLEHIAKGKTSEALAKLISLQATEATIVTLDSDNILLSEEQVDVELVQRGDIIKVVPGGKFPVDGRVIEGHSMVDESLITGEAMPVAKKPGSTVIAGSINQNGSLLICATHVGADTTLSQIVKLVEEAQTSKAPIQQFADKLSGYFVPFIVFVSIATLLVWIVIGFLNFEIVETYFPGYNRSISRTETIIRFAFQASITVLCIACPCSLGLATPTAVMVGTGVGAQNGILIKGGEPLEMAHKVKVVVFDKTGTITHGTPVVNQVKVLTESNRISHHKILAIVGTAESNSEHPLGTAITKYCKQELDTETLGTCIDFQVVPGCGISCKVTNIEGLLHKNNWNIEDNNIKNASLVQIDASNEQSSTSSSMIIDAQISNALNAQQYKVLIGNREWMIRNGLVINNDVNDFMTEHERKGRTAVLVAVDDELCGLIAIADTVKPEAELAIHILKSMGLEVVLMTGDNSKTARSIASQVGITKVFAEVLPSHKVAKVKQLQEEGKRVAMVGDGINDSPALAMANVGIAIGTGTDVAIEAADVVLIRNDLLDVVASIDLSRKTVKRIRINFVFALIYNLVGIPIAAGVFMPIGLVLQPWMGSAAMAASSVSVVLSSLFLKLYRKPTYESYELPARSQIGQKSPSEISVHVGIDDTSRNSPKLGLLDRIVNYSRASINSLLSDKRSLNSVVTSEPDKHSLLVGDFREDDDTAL
Chain of UniProt P21281 (P21281 whole entry): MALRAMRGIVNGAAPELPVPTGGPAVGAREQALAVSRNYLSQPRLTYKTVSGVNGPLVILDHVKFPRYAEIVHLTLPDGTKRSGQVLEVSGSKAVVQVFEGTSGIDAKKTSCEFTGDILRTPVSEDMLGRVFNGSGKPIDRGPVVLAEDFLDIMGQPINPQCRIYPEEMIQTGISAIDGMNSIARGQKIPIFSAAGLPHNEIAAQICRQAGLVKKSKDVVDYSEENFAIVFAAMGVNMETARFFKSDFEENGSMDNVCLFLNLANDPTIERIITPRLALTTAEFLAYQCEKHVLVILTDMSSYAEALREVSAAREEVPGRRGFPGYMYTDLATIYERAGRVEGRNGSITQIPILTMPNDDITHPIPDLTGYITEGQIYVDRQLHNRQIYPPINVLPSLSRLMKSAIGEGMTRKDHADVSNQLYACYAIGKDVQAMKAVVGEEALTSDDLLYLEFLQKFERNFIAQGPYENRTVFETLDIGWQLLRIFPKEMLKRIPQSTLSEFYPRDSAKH
Chain of UniProt Q9Y2G3 (Q9Y2G3 whole entry): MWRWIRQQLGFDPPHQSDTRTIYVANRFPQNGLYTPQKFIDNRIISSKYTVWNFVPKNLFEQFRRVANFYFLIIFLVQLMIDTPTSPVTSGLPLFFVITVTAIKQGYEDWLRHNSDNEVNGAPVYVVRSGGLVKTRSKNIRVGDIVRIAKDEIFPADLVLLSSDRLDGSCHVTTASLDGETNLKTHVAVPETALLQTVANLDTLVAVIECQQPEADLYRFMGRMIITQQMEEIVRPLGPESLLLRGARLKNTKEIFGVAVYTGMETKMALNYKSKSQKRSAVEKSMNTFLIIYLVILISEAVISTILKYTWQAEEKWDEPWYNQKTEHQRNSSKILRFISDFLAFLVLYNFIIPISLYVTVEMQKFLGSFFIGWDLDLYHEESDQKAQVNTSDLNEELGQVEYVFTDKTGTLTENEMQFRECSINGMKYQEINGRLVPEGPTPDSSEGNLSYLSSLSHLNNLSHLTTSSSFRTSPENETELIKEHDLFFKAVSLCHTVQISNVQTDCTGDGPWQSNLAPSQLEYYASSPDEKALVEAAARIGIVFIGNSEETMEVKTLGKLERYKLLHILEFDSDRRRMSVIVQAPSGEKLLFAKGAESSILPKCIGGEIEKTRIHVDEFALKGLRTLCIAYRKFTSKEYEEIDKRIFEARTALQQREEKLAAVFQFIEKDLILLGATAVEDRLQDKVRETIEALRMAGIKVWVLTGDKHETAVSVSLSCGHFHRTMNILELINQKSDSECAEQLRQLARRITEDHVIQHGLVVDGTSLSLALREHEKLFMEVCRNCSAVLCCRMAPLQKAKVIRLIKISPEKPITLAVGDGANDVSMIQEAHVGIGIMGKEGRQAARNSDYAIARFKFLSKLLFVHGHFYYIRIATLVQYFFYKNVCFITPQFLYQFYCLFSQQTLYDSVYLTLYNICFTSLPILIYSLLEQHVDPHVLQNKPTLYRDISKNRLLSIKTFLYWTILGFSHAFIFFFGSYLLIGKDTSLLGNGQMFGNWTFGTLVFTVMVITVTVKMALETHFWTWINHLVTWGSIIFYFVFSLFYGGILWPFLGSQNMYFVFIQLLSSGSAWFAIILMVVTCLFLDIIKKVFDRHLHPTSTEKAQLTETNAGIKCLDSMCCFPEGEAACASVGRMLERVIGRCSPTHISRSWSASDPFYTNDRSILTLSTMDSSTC
Chain of UniProt P38606 (P38606 whole entry): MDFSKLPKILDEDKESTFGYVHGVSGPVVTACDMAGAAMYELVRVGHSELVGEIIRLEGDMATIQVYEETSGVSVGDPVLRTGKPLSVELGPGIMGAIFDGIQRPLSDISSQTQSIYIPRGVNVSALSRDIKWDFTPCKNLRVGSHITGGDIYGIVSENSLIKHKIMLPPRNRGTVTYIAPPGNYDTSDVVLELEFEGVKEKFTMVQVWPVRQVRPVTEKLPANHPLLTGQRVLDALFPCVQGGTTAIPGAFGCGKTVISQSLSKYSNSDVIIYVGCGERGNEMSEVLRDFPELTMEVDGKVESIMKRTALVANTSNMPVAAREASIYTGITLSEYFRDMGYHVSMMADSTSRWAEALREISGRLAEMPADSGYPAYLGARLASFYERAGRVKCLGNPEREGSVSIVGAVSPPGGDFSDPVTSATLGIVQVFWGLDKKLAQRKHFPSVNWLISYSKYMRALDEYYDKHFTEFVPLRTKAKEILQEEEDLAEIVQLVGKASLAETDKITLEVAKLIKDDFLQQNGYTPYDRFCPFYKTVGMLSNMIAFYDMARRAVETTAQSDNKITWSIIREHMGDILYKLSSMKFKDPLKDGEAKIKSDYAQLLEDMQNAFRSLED
Chain of UniProt P21283 (P21283 whole entry): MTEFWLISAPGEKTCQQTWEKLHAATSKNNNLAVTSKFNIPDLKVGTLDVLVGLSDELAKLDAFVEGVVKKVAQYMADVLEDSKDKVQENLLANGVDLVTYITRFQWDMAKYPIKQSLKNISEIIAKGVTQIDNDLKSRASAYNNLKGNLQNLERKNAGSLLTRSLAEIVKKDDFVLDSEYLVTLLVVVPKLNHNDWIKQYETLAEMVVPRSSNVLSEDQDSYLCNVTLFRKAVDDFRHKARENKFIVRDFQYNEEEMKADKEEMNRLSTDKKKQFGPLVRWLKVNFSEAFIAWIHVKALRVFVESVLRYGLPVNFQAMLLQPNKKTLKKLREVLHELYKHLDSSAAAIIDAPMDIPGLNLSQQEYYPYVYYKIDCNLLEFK
Chain of UniProt O75348 (O75348 whole entry): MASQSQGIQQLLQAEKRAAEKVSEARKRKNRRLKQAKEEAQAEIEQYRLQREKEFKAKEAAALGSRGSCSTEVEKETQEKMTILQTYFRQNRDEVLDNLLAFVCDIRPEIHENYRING

Turning to ATP6V0D1 (UniProt P61421), the thermal stability z-score in experiment [1] is -0.134; in experiment [2] (setting [3]), -0.621; in experiment [2] (arsenate co-treatment: none) it was -0.115.
For ATP6V1A (UniProt P38606), in that order: -0.613, -0.368 and -0.529.
For ATP6V1B2 (UniProt P21281), in that order: -0.745, -0.0948 and -0.684.
Turning to ATP6V1C1 (UniProt P21283), the thermal stability z-score in experiment [1] was 0.132; in experiment [2] (setting [3]), -0.136; in experiment [2] (arsenate co-treatment: none) it was 0.0202.
Regarding ATP6V1D (UniProt Q9Y5K8), the values for the thermal stability z-score in experiment [1], in experiment [2] (setting [3]) and in experiment [2] (arsenate co-treatment: none) were -0.425, 0.546 and 0.0685, respectively.
Taken in the same sequence, the figures for ATP6V1E1 (UniProt P36543) were 0.637, 0.0691 and -0.201.
ATP6V1G1 (UniProt O75348): the thermal stability z-score came out at 0.295 in experiment [1], 0.563 in experiment [2] (setting [3]) and 0.473 in experiment [2] (arsenate co-treatment: none).
Regarding ATP6V1H (UniProt Q9UI12), the thermal stability z-score in experiment [1] was -0.0897; in experiment [2] (setting [3]), 0.0391; in experiment [2] (arsenate co-treatment: none) it was -0.146.
Regarding ATP7A (UniProt Q04656), the results for the thermal stability z-score in experiment [1], in experiment [2] (setting [3]) and in experiment [2] (arsenate co-treatment: none) were -0.674, -0.29 and -0.175, respectively.
Taken in the same sequence, the figures for ATP9A (UniProt O75110) were -0.569, 0.482 and 0.278.
For ATP11A (UniProt P98196), in that order: -0.309, -0.441 and 0.419.
In the case of ATP11B (UniProt Q9Y2G3), the results for the thermal stability z-score in experiment [1], in experiment [2] (setting [3]) and in experiment [2] (arsenate co-treatment: none) were -1.03, 0.0989 and -0.588, respectively.
For ATP11C (UniProt Q8NB49), in that order: -1.13, -0.348 and 0.254.
Taken in the same sequence, the figures for ATP13A1 (UniProt Q9HD20) were -0.277, -0.0204 and 0.186.
For ATP13A3 (UniProt Q9H7F0), in that order: 0.165, -0.563 and 0.206.
Turning to ATPAF1 (UniProt Q5TC12), the thermal stability z-score in experiment [1] was -0.64; in experiment [2] (setting [3]) it was -0.471; in experiment [2] (arsenate co-treatment: none), -0.084.
Consider ATPAF2 (UniProt Q8N5M1), for which the values for the thermal stability z-score in experiment [1], in experiment [2] (setting [3]) and in experiment [2] (arsenate co-treatment: none) were -0.318, -0.263 and -0.0435, respectively.
On to ATPIF1 (UniProt Q9UII2), for which the results for the thermal stability z-score in experiment [1], in experiment [2] (setting [3]) and in experiment [2] (arsenate co-treatment: none) were -0.206, 0.646 and 0.505, respectively.
Take ATR (UniProt Q13535): the thermal stability z-score is -0.568 in experiment [1], -0.0437 in experiment [2] (setting [3]) and 0.124 in experiment [2] (arsenate co-treatment: none).
Taken in the same sequence, the figures for ATRAID (UniProt Q6UW56) were 0.451, -2.95 and -2.55.
With ATRIP (UniProt Q8WXE1), the thermal stability z-score was -0.137 in experiment [1], 0.275 in experiment [2] (setting [3]) and -0.148 in experiment [2] (arsenate co-treatment: none).
Taken in the same sequence, the figures for ATRN (UniProt O75882) were 0.705, 0.622 and -0.532.
With ATRX (UniProt P46100), the thermal stability z-score in experiment [1] was -0.0925; in experiment [2] (setting [3]), -0.0326; in experiment [2] (arsenate co-treatment: none) it was 0.195.
